Laboratory results: PubChem BioAssay (NCI)
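Results reflect a 48-hour exposure of cells in 96-well plates to compound at five concentrations. TGI marks complete inhibition of growth.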

What was measured:
Assay in all cases: NCI-60 cell line screen, 48 h
A549 NSCLC = system: A549 NSCLC
CAKI-1 renal = system: CAKI-1 renal
HOP-62 NSCLC = system: HOP-62 NSCLC
HOP-92 NSCLC = system: HOP-92 NSCLC
HT29 colon = system: HT29 colon
NCI-H226 lung = system: NCI-H226 lung
OVCAR-3 ovarian = system: OVCAR-3 ovarian
RXF 393 renal = system: RXF 393 renal
SF-295 CNS = system: SF-295 CNS
SK-MEL-28 melanoma = system: SK-MEL-28 melanoma
UACC-62 melanoma = system: UACC-62 melanoma
HCC-2998 colon = system: HCC-2998 colon

SMILES | TGI (A549 NSCLC) | TGI (CAKI-1 renal) | TGI (HOP-62 NSCLC) | TGI (HOP-92 NSCLC) | TGI (HT29 colon) | TGI (NCI-H226 lung) | TGI (OVCAR-3 ovarian) | TGI (RXF 393 renal) | TGI (SF-295 CNS) | TGI (SK-MEL-28 melanoma) | TGI (UACC-62 melanoma) | TGI (HCC-2998 colon)
CC(C)C1=CC23CCC4C(C)(C(=O)O)CCCC4(C)C2CC1C1C(=O)N(c2ccccc2)C(=O)C13 (stereo unspecified) | > 100 µM | > 100 µM | > 100 µM | 97.4 µM | > 100 µM | 60.3 µM | > 100 µM | 76.1 µM | > 100 µM | > 100 µM | > 100 µM | –
O=C(N/N=C(/COc1ccc([N+](=O)[O-])cc1)N=Cc1ccncc1)c1ccncc1 | > 100 µM | > 100 µM | > 100 µM | – | > 100 µM | > 100 µM | > 100 µM | > 100 µM | > 100 µM | > 100 µM | > 100 µM | > 100 µM
CC(C)C(/C=C/c1ccc(Cl)c(Cl)c1)=N\NC(=O)N/N=C(/C=C/c1ccc(Cl)c(Cl)c1)C(C)C | – | > 100 µM | > 100 µM | > 100 µM | > 100 µM | > 100 µM | > 100 µM | – | > 100 µM | > 100 µM | > 100 µM | > 100 µM
Clc1ccc(C2Nc3ccccc3C3=NCCN32)cc1 (stereo unspecified) | > 100 µM | > 100 µM | > 100 µM | 34 µM | 38.5 µM | – | > 100 µM | 58.8 µM | 35.4 µM | 34.6 µM | 32.3 µM | –
O=C(O)Cc1ccc2[nH]c(O)c(C3=Nc4ccccc4C3=O)c2c1 | > 100 µM | > 100 µM | > 100 µM | – | > 100 µM | > 100 µM | 67.3 µM | 58.5 µM | > 100 µM | > 100 µM | 85.7 µM | > 100 µM
O=C(CNc1ccccc1[N+](=O)[O-])Nn1c(-c2ccccc2)nc2ccccc2c1=O | > 100 µM | – | 42.8 µM | 28.3 µM | 33.7 µM | 93 µM | > 100 µM | 38.9 µM | 46.5 µM | 59.2 µM | 23.4 µM | 26.3 µM
O=C1OC(=O)c2cc(S(=O)(=O)c3ccc4c(c3)C(=O)OC4=O)ccc21 | > 100 µM | > 100 µM | > 100 µM | – | > 100 µM | > 100 µM | > 100 µM | > 100 µM | > 100 µM | > 100 µM | > 100 µM | > 100 µM
O=[N+]([O-])c1ccc(C=NCC2CCCN3CCCCC23)cc1 (stereo unspecified) | > 100 µM | > 100 µM | > 100 µM | > 100 µM | 34.9 µM | – | – | > 100 µM | > 100 µM | > 100 µM | > 100 µM | > 100 µM
Cc1ccc2nc(-c3ccc(N4C(=O)C(Cl)C4c4ccc(Cl)cc4)cc3)sc2c1 (stereo unspecified) | 36.9 µM | 35.6 µM | 61.7 µM | 18.9 µM | 4.02 µM | 36 µM | 40.1 µM | – | 32.1 µM | 31.5 µM | 31.3 µM | –
CC(=O)OCC1OC(Oc2cc(C)c(O)cc2C/C=C(\C)CC/C=C(\C)CC(=O)CC(C)C)C(O)C(OC(C)=O)C1OC(C)=O (stereo unspecified) | 20.3 µM | > 50 µM | 40 µM | > 50 µM | 12.5 µM | – | 30 µM | 22.6 µM | > 50 µM | > 50 µM | 39.1 µM | 24.5 µM
